Counter-ions that a name gives are not always drawn.
How the values were obtained:
[1] = biological target: T1, norephineprine N-methyl transferase (Oryctolagus cuniculus, UniProt G1TT82); assay: in vitro inhibition of N-methyl transferase (NMT) from rabbit adrenals; type: biochemical; details: from concentration giving 50 percent inhibition, decreasing concentrations from 1 × 10^-4 M, read-out: pI50 (converted)
T1 construct: employing NMT from rabbit adrenals; from tissue; host or cells: rabbit adrenals
T1 sequence (G1TT82 1-286): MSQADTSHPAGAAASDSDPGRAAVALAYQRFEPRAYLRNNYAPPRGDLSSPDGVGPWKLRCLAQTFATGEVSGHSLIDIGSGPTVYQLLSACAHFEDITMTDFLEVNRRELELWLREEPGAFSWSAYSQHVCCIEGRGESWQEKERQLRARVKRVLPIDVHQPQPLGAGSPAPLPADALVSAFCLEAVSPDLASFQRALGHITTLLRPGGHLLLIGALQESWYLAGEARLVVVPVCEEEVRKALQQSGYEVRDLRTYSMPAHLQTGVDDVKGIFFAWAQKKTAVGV
Text: The compounds of this invention, either in the form of the free base, or as a pharmaceutically-acceptable acid addition salt thereof, are enzyme inhibitors. In particular, as previously stated, they are inhibitors of norephineprine N-methyl transferase [PNMT or phenethanolamine N-methyl transferase - - see Axelrod, J. Bio. Chem., 237, 1657 (1962)]. Compounds which inhibit the conversion of norephineprine to ephineprine are capable of lowering a high ephineprine-norephineprine ratio in mammals, a physiological condition frequently associated with essential hypertension. The compounds of this invention are thus capable of ameliorating the ephineprine-norephineprine imbalance in essential hypertension, an important aspect of the treatment of this disease state. The effectiveness of the compounds as N-methyl transferase inhibitors has been measured in vitro employing NMT from rabbit adrenals. By using a series of decreasing concentration of the inhibiting amine, usually starting with 1 × 10^-4 M continuing with 3 × 10^-5 M, 1 × 10^-5 M, etc., it was possible to determine a concentration at which the 50 percent inhibition of NMT was achieved. The negative reciprocal logarhithm (pI50) of this number was also calculated as a useful index. Table 1, which follows, summarizes the information thus obtained; i.e., the determination of enzyme inhibition activity for the compounds of this invention. […]

[2] = pKa determination
[3] = tested on: catechol amine uptake; details: literature statement, no figures; cited from earlier work

NC1CCc2ccc(C(F)(F)F)cc21 (centres unmarked) [6-Trifluoromethyl-1-aminoindane hydrochloride]
IC50 [1]: 64.6 µM | pKa [2]: 8.52

NC1CCc2c1cccc2C(F)(F)F (centres unmarked) [4-trifluoromethyl-1-aminoindane hydrochloride]
IC50 [1]: 0.234 µM | pKa [2]: 8.58

NC1Cc2ccccc2C1 [2-aminoindane]
inhibitor of catechol amine uptake, compared with 1-aminoindane [3]: better inhibitor of catechol amine uptake than 1-aminoindane

— patent publication US4132737A, “Trifluoromethyl substituted 1-aminoindanes” (Eli Lilly and Company, priority 1978, dated 1979)
